The results in this text go back to patent US8901118B2, “Compounds and methods for kinase modulation, and indications therefor” (Plexxikon Inc., priority 2010, dated 2014).

For assay [1], the target named is T1, BCR-NTRK3 BaF3 cells (Homo sapiens, UniProt Q16288).
T1 construct: fused on or other part: P11274 (Breakpoint cluster region protein)
In words: BaF3 BCR-NTRK3 cell proliferation assay (ATPlite). It is filed as cell-based. Conditions: read-out: Inhibition of Cell Proliferation IC50, BCR/BaF3 TrkC. The procedure:
(§1) Compounds are assessed in a variety of cell based assays. For example BaF3 cells engineered with any of BCR-FMS, BCR-KIT, BCR-FLT3, BCR-NTRK1, BCR-NTRK2, and BCR-NTRK3, are used in cell proliferation assays to assess inhibitory activity of Fms, Kit, Flt-3, TrkA, TrkB, and TrkC, respectively. An MV-4-11 (leukemia) cell proliferation assay is used to assess inhibitory activity in Flt-3, and SKNSH (human neuroblastoma) cell proliferation assay is used to assess efficacy of Fms/Trk inhibitors. Additional cells may be assayed similarly to assess the efficacy of Fms/Trk inhibitors, such as MiaPaCa (human pancreatic cancer) and Capan-1 (human pancreatic carcinoma) cells. Reagent and assay conditions are as follows: • BaF3 cells: • Maintained in RPMI containing 10% FBS, 1% PenStrep, 1% NEAA, and 1% L-Glutamine, supplemented with 1 mg/mL G418 and 5% WEHI-CM (or recombinant murine IL-3). • Confluent cells are split 1:50 to 1:100 every 3-4 days. • MV-4-11 cells: • Maintained in Iscove's Modified Dulbecco's Medium containing 10% FBS. • Confluent cells are split 1:4 every 3-4 days. • SKNSH cells: RPMI containing 10% FBS. On day 1, cells are counted, then centrifuged in a conical tube for 5 minutes at 1000 rpm. The supernatant is removed and cells are re-suspended as follows: • BaF3: resuspend in growth media +1 mg/mL G418 (without WEHFIL-3) to 2×10^5 cells/mL. • MV-4-11: resuspend in growth media to 5×10^5 cells/mL. • SKNSH: resuspend in growth media to 2×10^4 cells/mL. The cells are plated (50 μL, 150 μL for SKNSH cells) in each well of a 96-well dish (Corning 3610) and incubated at 37° C. in 5% CO2 overnight, cells plated to a final concentration of cells as follows: • BaF3: 10,000 cells per well. • MV-4-11: 25,000 cells per well. • SKNSH: 3,000 cells per well. On day 2, compound at a maximum concentration of 5 mM is serially diluted 1:3 for a total of 8 point titration with DMSO as a control. A 1 μL aliquot of each dilution point is added to 249 μL growth media and 50 μL is added to a well containing cells, providing 10 μM compound for the maximum concentration point. The cells are incubated for 3 days at 37° C. in 5% CO2. For SKNSH cells, a 0.75 μL aliquot of appropriate dilution in DMSO is added to 150 μL of cells. On day 5, ATPlite 1 step Luminescence Assay System (Perkin Elmer #6016739) is brought to room temperature along with the cell cultures. ATPlite is added to each well as follows: • BaF3: 25 μL per well. • MV-4-11: 40 μL per well. • SKNSH: 20 μL per well. The cells are incubated at room temperature for 10 minutes, then luminescence is read on Safire reader. The measured luminescence correlates directly with cell number, such that the reading as a function of compound concentration is used to determine the IC50 value.
(§2) It is understood that the results of these assays may vary as assay conditions are varied. Inhibition levels determined under the conditions described herein represent a relative activity for the compounds tested under the specific conditions employed. The cell based assays are likely to show variability due to the complexity of the system and the sensitivity thereof to any changes in the assay conditions. […] Results for compounds that are tested and show substantially no inhibition below the highest tested concentration are represented as “-” in the tables below. In some instances, the compounds were not tested in all of the assays, or assay results were not valid, as indicated by NA in the tables below.
On the technique in general: Cellular ATP, detected with luciferase, serves as a proxy for viable cell number.

Assay [2] deals with T2, BCR-FMS BaF3 cells (Homo sapiens, UniProt P07333).
T2 construct: fused on or other part: P11274 (Breakpoint cluster region protein)
T2 sequence (P07333 582-910): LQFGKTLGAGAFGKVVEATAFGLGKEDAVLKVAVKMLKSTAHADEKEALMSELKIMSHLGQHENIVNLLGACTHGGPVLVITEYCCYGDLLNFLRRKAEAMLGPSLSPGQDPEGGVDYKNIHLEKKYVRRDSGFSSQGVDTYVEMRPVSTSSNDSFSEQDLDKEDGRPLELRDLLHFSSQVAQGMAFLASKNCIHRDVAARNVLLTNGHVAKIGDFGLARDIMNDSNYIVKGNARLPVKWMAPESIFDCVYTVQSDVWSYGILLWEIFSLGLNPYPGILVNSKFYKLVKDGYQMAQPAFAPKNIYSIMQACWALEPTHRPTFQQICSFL
In words: BaF3 BCR-FMS cell proliferation assay (ATPlite). Conditions: read-out: Inhibition of Cell Proliferation IC50, BCR/BaF3 Fms. The format is cell-based. The method, then: as §1, §2

Assay [3] addresses Fms kinase (Homo sapiens, UniProt P07333). In words: Fms kinase biochemical activity assay (AlphaScreen, biotin-(E4Y)10 phosphorylation). Conditions: 100 μM ATP; read-out: Biochemical Inhibition IC50 Fms. The procedure: In one assay the biochemical activity IC50 values are determined with respect to inhibition of Fms kinase activity, where inhibition of phosphorylation of a peptide substrate is measured as a function of compound concentration. Compounds to be tested, dissolved in DMSO (1 μL), are added to a white 384-well plate (Costar #3705). Working stocks of Fms kinase (Invitrogen #PV3249), biotin-(E4Y)10 substrate (Upstate Biotech, Cat#12-440), and ATP (Sigma, Cat#A-3377) are prepared in 25 mM Hepes pH 7.5, 0.5 mM MgCl2, 2 mM MnCl2, 2 mM DTT, 0.01% BSA, and 0.01% Tween-20. All components are added to the 384-well plate for a final concentration of 1 ng/well Fms, 30 nM biotin-(E4Y)10 (Upstate Biotechnology) and 100 μM ATP in a volume of 20 μL. Each sample is at 5% DMSO. The plate is then incubated for 20 minutes at 30° C. Just before use, working stocks of donor and acceptor beads from the AlphaScreen PY20 Detection Kit (PerkinElmer, Cat#676601M) are prepared in 25 mM Hepes pH 7.5, pH 7.4, 100 mM EDTA, 0.01% BSA. To stop the reaction, the plate is uncovered in the dark and 5 μL of Donor Beads solution (Streptavidin beads) is added to each well. The plate is incubated at room temperature for 20 minutes. Five microliters of Acceptor Beads solution (PY20 coated beads) are then added to each well. The final concentration of each bead is 10 μg/mL. The plates are incubated at room temperature for 60 minutes. Fluorescence signal is recorded on the Envision reader. Phosphorylated substrate results in binding of the PY20 antibody and association of the donor and acceptor beads such that signal correlates with kinase activity. The signal vs. compound concentration is used to determine the IC50.
A general note: Alpha assays give light when donor and acceptor beads are brought close together.

Molecules are shown by their SMILES.

Fms kinase, sequence (P07333 20-972): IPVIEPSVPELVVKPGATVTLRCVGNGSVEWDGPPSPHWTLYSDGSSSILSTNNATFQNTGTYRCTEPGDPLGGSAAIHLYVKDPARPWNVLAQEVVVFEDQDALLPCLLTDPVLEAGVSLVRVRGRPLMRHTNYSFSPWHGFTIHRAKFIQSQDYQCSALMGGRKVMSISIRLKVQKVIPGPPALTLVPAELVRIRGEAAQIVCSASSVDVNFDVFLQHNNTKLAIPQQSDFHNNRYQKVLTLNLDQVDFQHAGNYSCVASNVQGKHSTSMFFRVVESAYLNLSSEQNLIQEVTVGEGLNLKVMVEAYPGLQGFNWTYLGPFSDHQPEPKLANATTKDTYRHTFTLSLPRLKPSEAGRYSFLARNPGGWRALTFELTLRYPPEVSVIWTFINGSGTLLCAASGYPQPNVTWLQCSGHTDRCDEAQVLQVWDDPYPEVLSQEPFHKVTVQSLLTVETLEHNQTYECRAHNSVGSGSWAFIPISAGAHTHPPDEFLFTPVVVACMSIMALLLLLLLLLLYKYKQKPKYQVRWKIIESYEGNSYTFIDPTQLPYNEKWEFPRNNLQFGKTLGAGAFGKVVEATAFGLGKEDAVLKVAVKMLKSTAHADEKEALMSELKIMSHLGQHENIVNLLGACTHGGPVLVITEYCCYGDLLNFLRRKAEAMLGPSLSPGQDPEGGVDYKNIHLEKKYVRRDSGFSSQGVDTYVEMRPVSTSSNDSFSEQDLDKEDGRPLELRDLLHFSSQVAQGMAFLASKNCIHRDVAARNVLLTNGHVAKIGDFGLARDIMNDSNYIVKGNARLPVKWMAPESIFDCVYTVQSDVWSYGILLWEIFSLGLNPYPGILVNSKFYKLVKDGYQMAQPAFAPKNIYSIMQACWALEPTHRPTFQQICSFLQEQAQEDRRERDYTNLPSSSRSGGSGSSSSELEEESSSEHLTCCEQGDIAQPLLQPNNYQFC
T1 sequence (Q16288 whole entry, the tested form may be a part): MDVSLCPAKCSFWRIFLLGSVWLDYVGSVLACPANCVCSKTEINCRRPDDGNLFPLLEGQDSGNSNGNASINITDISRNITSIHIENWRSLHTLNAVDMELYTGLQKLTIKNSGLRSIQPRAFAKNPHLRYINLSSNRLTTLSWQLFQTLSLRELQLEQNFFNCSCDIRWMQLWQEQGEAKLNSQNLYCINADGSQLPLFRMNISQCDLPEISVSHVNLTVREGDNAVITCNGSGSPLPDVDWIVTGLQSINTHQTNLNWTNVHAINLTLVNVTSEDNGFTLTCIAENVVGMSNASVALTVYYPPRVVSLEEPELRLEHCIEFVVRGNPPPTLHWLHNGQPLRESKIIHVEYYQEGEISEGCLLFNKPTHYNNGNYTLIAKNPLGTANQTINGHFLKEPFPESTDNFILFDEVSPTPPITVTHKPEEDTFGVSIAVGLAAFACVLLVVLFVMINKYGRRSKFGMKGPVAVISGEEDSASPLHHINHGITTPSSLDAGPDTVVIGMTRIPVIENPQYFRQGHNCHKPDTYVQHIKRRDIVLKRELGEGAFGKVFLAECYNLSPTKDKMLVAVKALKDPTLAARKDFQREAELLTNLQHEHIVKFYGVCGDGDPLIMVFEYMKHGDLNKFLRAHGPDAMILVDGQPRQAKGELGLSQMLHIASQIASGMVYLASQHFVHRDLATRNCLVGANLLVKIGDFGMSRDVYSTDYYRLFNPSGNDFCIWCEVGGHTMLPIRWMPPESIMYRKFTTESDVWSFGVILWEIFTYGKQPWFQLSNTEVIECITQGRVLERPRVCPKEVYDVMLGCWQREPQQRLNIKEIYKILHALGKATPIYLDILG

On to `CC1CCC(Nc2ncc(Cc3c[nH]c4ncc(Cl)cc34)cn2)CC1` (centres unmarked) [Compound P-3009, [5-(5-Chloro-1H-pyrrolo[2,3-b]pyridin-3-ylmethyl)-pyrimidin-2-yl]-(4-methyl-cyclohexyl)-amine], for which the results for the IC50 in assay [1], in assay [2] and in assay [3] were more than 10000 nM, less than 1000 nM and less than 100 nM, respectively.

Turning to `Cc1cnc2[nH]cc(Cc3cnc(Nc4ccc(F)cc4)nc3)c2c1` [Compound P-3010, (4-Fluoro-phenyl)-[5-(5-methyl-1H-pyrrolo[2,3-b]pyridin-3-ylmethyl)-pyrimidin-2-yl]-amine], the IC50 is more than 10000 nM in assay [1], less than 100 nM in assay [2] and less than 10 nM in assay [3].

With `Clc1ccc(Nc2ncc(Cc3c[nH]c4ncc(Cl)cc34)cn2)cc1` [Compound P-3011, (4-Chloro-phenyl)-[5-(5-chloro-1H-pyrrolo[2,3-b]pyridin-3-ylmethyl)-pyrimidin-2-yl]-amine], the IC50 in assay [1] was less than 100 nM; in assay [2], less than 100 nM; in assay [3] it was less than 10 nM.

Consider `Fc1ccc(Nc2ncc(Cc3c[nH]c4ncc(Cl)cc34)cn2)cc1` [Compound P-3012, [5-(5-Chloro-1H-pyrrolo[2,3-b]pyridin-3-ylmethyl)-pyrimidin-2-yl]-(4-fluoro-phenyl)-amine], for which the IC50 in assay [1] was less than 1000 nM; in assay [2], less than 100 nM; in assay [3], less than 10 nM.

Regarding `CCc1ccc(Nc2ccc(C(=O)c3c[nH]c4ncnc(Nc5ccc(C)nc5)c34)c(F)n2)cn1` [Compound P-4086, [6-[(6-ethyl-3-pyridyl)amino]-2-fluoro-3-pyridyl]-[4-[(6-methyl-3-pyridyl)amino]-7H-pyrrolo[2,3-d]pyrimidin-5-yl]methanone], the IC50 in assay [3] is less than 1000 nM.

On to `CCc1ccc(Nc2ccc(C(=O)c3c[nH]c4ncnc(NC5CCC(F)(F)CC5)c34)c(F)n2)cn1` [Compound P-4096, [4-[(4,4-difluorocyclohexyl)amino]-7H-pyrrolo[2,3-d]pyrimidin-5-yl]-[6-[(6-ethyl-3-pyridyl)amino]-2-fluoro-3-pyridyl]methanone], for which the IC50 in assay [2] was less than 10 nM; in assay [3], less than 100 nM.

Regarding `CCc1ccc(Nc2ccc(C(=O)c3c[nH]c4ncnc(N[C@@H](C)c5ccc(F)cc5)c34)c(F)n2)cn1` [Compound P-4097, [6-[(6-ethyl-3-pyridyl)amino]-2-fluoro-3-pyridyl]-[4-[[(1S)-1-(4-fluorophenyl)ethyl]amino]-7H-pyrrolo[2,3-d]pyrimidin-5-yl]methanone], the IC50 in assay [2] was less than 100 nM; in assay [3], less than 1000 nM.

As for `CCc1ccc(Nc2ccc(C(=O)c3c[nH]c4ncnc(NCCCOC)c34)c(F)n2)cn1` [Compound P-4098, [6-[(6-ethyl-3-pyridyl)amino]-2-fluoro-3-pyridyl]-[4-(3-methoxypropylamino)-7H-pyrrolo[2,3-d]pyrimidin-5-yl]methanone], the IC50 in assay [2] is less than 100 nM; in assay [3], less than 10 nM.

With `CCc1ccc(Nc2ccc(C(=O)c3c[nH]c4ncnc(NC5CCCC5)c34)c(F)n2)cn1` [Compound P-4099, [4-(cyclopentylamino)-7H-pyrrolo[2,3-d]pyrimidin-5-yl]-[6-[(6-ethyl-3-pyridyl)amino]-2-fluoro-3-pyridyl]methanone], the figures for the IC50 in assay [2] and in assay [3] were less than 10 nM and less than 100 nM, respectively.

As for `CCCCNc1ncnc2[nH]cc(C(=O)c3ccc(Nc4ccc(CC)nc4)nc3F)c12` [Compound P-4100, [4-(butylamino)-7H-pyrrolo[2,3-d]pyrimidin-5-yl]-[6-[(6-ethyl-3-pyridyl)amino]-2-fluoro-3-pyridyl]methanone], the IC50 in assay [2] and in assay [3] was less than 100 nM throughout.

In the case of `CC(C)Nc1ncnc2[nH]cc(C(=O)c3ccc(NC4CCCCC4)nc3F)c12` [Compound P-4101, [6-(cyclohexylamino)-2-fluoro-3-pyridyl]-[4-(isopropylamino)-7H-pyrrolo[2,3-d]pyrimidin-5-yl]methanone], the IC50 in assay [2] is less than 10 nM; in assay [3] it was less than 100 nM.

Take `CNc1ncnc2[nH]cc(C(=O)c3ccc(NC4CCCCC4)nc3F)c12` [Compound P-4102, [6-(cyclohexylamino)-2-fluoro-3-pyridyl]-[4-(methylamino)-7H-pyrrolo[2,3-d]pyrimidin-5-yl]methanone]: the figures for the IC50 in assay [2] and in assay [3] were less than 10 nM and less than 100 nM, respectively.

For the compound `CC(C)Nc1ncnc2[nH]cc(C(=O)c3ccc(NC4CCCCC4)nc3Cl)c12` [Compound P-4109, [2-chloro-6-(cyclohexylamino)-3-pyridyl]-[4-(isopropylamino)-7H-pyrrolo[2,3-d]pyrimidin-5-yl]methanone], the IC50 in assay [2] and in assay [3] was less than 100 nM throughout.

In the case of `CNc1ncnc2[nH]cc(C(=O)c3ccc(NC4CCCCC4)nc3Cl)c12` [Compound P-4110, [2-chloro-6-(cyclohexylamino)-3-pyridyl]-[4-(methylamino)-7H-pyrrolo[2,3-d]pyrimidin-5-yl]methanone], the IC50 in assay [2] and in assay [3] was less than 100 nM each time.

For `Cc1ccc(Nc2ccc(C(=O)c3c[nH]c4ncnc(NCC5CC5)c34)c(F)n2)cn1` [Compound P-4113, [4-(cyclopropylmethylamino)-7H-pyrrolo[2,3-d]pyrimidin-5-yl]-[2-fluoro-6-[(6-methyl-3-pyridyl)amino]-3-pyridyl]methanone], the IC50 in assay [2] and in assay [3] was less than 10 nM in each case.

As to `CCCNc1ncnc2[nH]cc(C(=O)c3ccc(Nc4ccc(C)nc4)nc3F)c12` [Compound P-4114, [2-fluoro-6-[(6-methyl-3-pyridyl)amino]-3-pyridyl]-[4-(propylamino)-7H-pyrrolo[2,3-d]pyrimidin-5-yl]methanone], the IC50 in assay [2] and in assay [3] was less than 10 nM each time.
